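Step 1: Grow cells in 96-well plates. Step 2: Expose to compound for 48 hours at 5 concentrations. Step 3: Interpolate endpoints linearly; if unreached, use highest concentration. At the GI50, growth is halved.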 Activity calls are given as the source filed them. No stated cut-off is given here; in the data, active = GI50 up to about 1.1 µM and inactive = higher.
Columns and labels:
Experiment in all cases: NCI-60 cell line screen, 48 h
OVCAR-8 = tested on: OVCAR-8
SNB-75 = tested on: SNB-75
T47D = tested on: T47D
RPMI-8226 = tested on: RPMI-8226
ACHN = tested on: ACHN
UACC-62 = tested on: UACC-62
SK-MEL-2 = tested on: SK-MEL-2
SK-MEL-28 = tested on: SK-MEL-28
NCI-H460 = tested on: NCI-H460
COLO 205 = tested on: COLO 205
Hs-578T = tested on: Hs-578T
HCC 2998 = tested on: HCC 2998
PC-3 = tested on: PC-3
CAKI-1 = tested on: CAKI-1
SK-MEL-5 = tested on: SK-MEL-5
SR = tested on: SR
MCF7 = tested on: MCF7
LOX IMVI = tested on: LOX IMVI
NCI/ADR-RES = tested on: NCI/ADR-RES
BT-549 = tested on: BT-549

Row | Compound | GI50 (OVCAR-8) | GI50 (SNB-75) | GI50 (T47D) | GI50 (RPMI-8226) | GI50 (ACHN) | GI50 (UACC-62) | GI50 (SK-MEL-2) | GI50 (SK-MEL-28) | GI50 (NCI-H460) | GI50 (COLO 205) | GI50 (Hs-578T) | GI50 (HCC 2998) | GI50 (PC-3) | GI50 (CAKI-1) | GI50 (SK-MEL-5) | GI50 (SR) | GI50 (MCF7) | GI50 (LOX IMVI) | GI50 (NCI/ADR-RES) | GI50 (BT-549)
1 | CN(CCc1ccccn1)C(=S)N/N=C(\c1ccccc1)c1ccccn1 | < 0.01 µM (active) | 1.3 µM (inactive) | < 0.01 µM (active) | < 0.01 µM (active) | < 0.01 µM (active) | 0.23 µM (active) | 1.42 µM (inactive) | 0.802 µM (active) | < 0.01 µM (active) | < 0.01 µM (active) | 1.91 µM (inactive) | 1.52 µM (inactive) | < 0.01 µM (active) | < 0.01 µM (active) | 0.0986 µM (active) | 0.0489 µM (active) | < 0.01 µM (active) | < 0.01 µM (active) | < 0.01 µM (active) | –
2 | COc1cc2c(cc1OS(C)(=O)=O)N=C[C@@H]1CCCN1C2=O | > 100 µM (inactive) | > 100 µM (inactive) | > 100 µM (inactive) | > 100 µM (inactive) | > 100 µM (inactive) | > 100 µM (inactive) | > 100 µM (inactive) | > 100 µM (inactive) | > 100 µM (inactive) | > 100 µM (inactive) | > 100 µM (inactive) | > 100 µM (inactive) | – | > 100 µM (inactive) | > 100 µM (inactive) | > 100 µM (inactive) | > 100 µM (inactive) | > 100 µM (inactive) | – | –
3 | Cc1csc(-n2c(C)nc3cc(Cl)ccc3c2=O)n1 | > 100 µM (inactive) | > 100 µM (inactive) | – | – | > 100 µM (inactive) | > 100 µM (inactive) | > 100 µM (inactive) | > 100 µM (inactive) | > 100 µM (inactive) | 71 µM (inactive) | – | > 100 µM (inactive) | > 100 µM (inactive) | > 100 µM (inactive) | 43.1 µM (inactive) | > 100 µM (inactive) | 31.5 µM (inactive) | 96.2 µM (inactive) | 86.3 µM (inactive) | > 100 µM (inactive)
4 | COc1ccc(-c2nc(SCC(=O)N/N=C/c3ccc(O)c(OC)c3)[nH]c2-c2ccc(OC)cc2)cc1 | 28.9 µM (inactive) | 47.5 µM (inactive) | 22.7 µM (inactive) | – | 18.2 µM (inactive) | 14.1 µM (inactive) | 17.3 µM (inactive) | 28.4 µM (inactive) | 23.2 µM (inactive) | 19.8 µM (inactive) | – | 17.7 µM (inactive) | 27.1 µM (inactive) | 54.3 µM (inactive) | 17.7 µM (inactive) | – | 17.9 µM (inactive) | 22.8 µM (inactive) | 31.8 µM (inactive) | 22.1 µM (inactive)
5 | c1ccc(CCNc2ccccn2)nc1 | > 100 µM (inactive) | – | – | – | > 100 µM (inactive) | > 100 µM (inactive) | > 100 µM (inactive) | > 100 µM (inactive) | > 100 µM (inactive) | > 100 µM (inactive) | > 100 µM (inactive) | > 100 µM (inactive) | > 100 µM (inactive) | > 100 µM (inactive) | > 100 µM (inactive) | – | > 100 µM (inactive) | > 100 µM (inactive) | > 100 µM (inactive) | > 100 µM (inactive)
6 | CSc1cc(Cl)c(C)cc1S(=O)(=O)NC(=O)NNc1cnc2ccccc2n1 | > 100 µM (inactive) | – | > 100 µM (inactive) | – | > 100 µM (inactive) | – | > 100 µM (inactive) | > 100 µM (inactive) | > 100 µM (inactive) | > 100 µM (inactive) | > 100 µM (inactive) | > 100 µM (inactive) | > 100 µM (inactive) | > 100 µM (inactive) | > 100 µM (inactive) | > 100 µM (inactive) | > 100 µM (inactive) | > 100 µM (inactive) | > 100 µM (inactive) | –
7 | CCOC(=O)N1CCC(=C2c3ccc(Cl)cc3CCc3cccnc32)CC1 [LORATADINE] | 12.7 µM (inactive) | – | 13.3 µM (inactive) | 3.83 µM (inactive) | 4.15 µM (inactive) | 4.73 µM (inactive) | 11.2 µM (inactive) | 5.57 µM (inactive) | 3.44 µM (inactive) | 9.14 µM (inactive) | 26.9 µM (inactive) | 10 µM (inactive) | 10.4 µM (inactive) | – | 2.08 µM (inactive) | 2.64 µM (inactive) | 7.4 µM (inactive) | 10.9 µM (inactive) | 6.56 µM (inactive) | –
8 | COc1c2c(c3c(c1C1OC(C)[C@@H](C)O1)CC(C)(C)O3)C(=O)c1ccccc1C2=O (stereo partly drawn) | 34.3 µM (inactive) | 46.5 µM (inactive) | – | 20.6 µM (inactive) | 40.5 µM (inactive) | 34.9 µM (inactive) | > 100 µM (inactive) | 55.3 µM (inactive) | 37.6 µM (inactive) | 35.1 µM (inactive) | – | 76.2 µM (inactive) | – | 40.2 µM (inactive) | 56.8 µM (inactive) | 22.5 µM (inactive) | – | 15 µM (inactive) | – | –
